According to article PMC10382604, “The mirrored cationic peptide as miRNA vehicle for efficient lung cancer therapy” (MedComm, 2023):
Ends that are not written are not given here.

Tests used:
Test in all cases: CCK-8 cytotoxicity of the peptides
Details in all cases: CCK-8 assay, peptide alone, Figure S1
[1] = test system: A549 (lung adenocarcinoma cells); assay type: cell-based, human
Description: (§1) Cell viability was detected by CCK8 assay (Beyotime Biotechnology, China) based on the universal protocol.[38] The ratio of cell viability was calculated as A treated/A control × 100%.

[2] = test system: NCI‐H1299 (lung adenocarcinoma cells); assay type: cell-based, human
Description: as §1

[3] = test system: BEAS‐2B cells (human bronchial epithelial cells); assay type: cell-based
Description: as §1

Measured: cytotoxicity

RGDGSRRRRPLGLAGRRRRGSRGD [RD24]
no significant cytotoxicity: all assays above

RRRRPLGLAGRRRR [RR14]
no significant cytotoxicity: all assays above

RGDGSRRRRPLGLAGRRRR [RR19]
no significant cytotoxicity: all assays above
